{"source": "patent US20180246105A1", "about": "“IMMUNOLOGICAL TEST KIT FOR […] EFFICACY AND STORAGE METHOD THEREOF” (priority 2015, published 2018)", "key": {"CD4+ T cells": {"tested_on": "CD4+ T cells", "experiment": "Clinical cellular immune detection (10-day enrichment), CD4+ T cells re-stimulated with HBV-specific peptides", "assay_type": "in vivo, human", "experimental": "(§1) 7) Cell seeding and peptide stimulation. PBMC was re-suspended with 10% FBS-RPMI-1640 and seeded into 12-well plate with 1mL/well. Specific peptides were added at the same time with 1 μL per well. The plate was then incubated in 5% CO2, 37° C.\n(§2) After five days incubation, 50 μL sample was taken from each well and stored at −80° C. Then added 500 ul 10% FBS-RPMI-1640 contained […], continued for another five days incubator.\n(§3) 2) Stimulation. After 10 days enrichment, the cells in 12-well plate were transferred into a 1.5 mL EP tube. Centrifuge with 1500 rpm, 3 min. Discard supernatant and re-suspend with FBS-RPMI-1640 prepared in step 1. The suspended cells were then seeded into a 96-well plate, the plate was coated with PMA, N, CMV, S4, S8 and MIX, 90 uL/well with three repetitions. Then the plate was incubated in 5% CO2, 37° C. for 8 hours.\n(§4) 3) Storage. After 8 hours incubation, the 96-well plate was set for centrifuge with 1500 rpm, 3 min. Discard supernatant and re-suspend with 200 μL cell freezing medium (10% DMSO with 90% FBS). Disassociation by pipetting 3 to 5 times and sealed with parafilm. And then set for gradient cryopreservation with 4° C. for 1 hour, at −20° C. for 40 min and at −80° C. thereafter.\n(§5) 3) Cell surface marker staining Panel 1, CD4-APC; Panel 2, CD8-APC; Panel 3, CD4-FITC. The dose of antibody was as the recommended dose in the reagent manual. Plate was centrifuged with 1500 rpm, 3 min. Discard supernatant and re-suspend with staining buffer in 4° C. for 30 min.\n6) Intracellular staining. Panel 1/Panel 2, IFN-g-PE, TNF-α-BV421, IL-17-APC/cy7, IL-2-FITC; Panel 3, FOXP3-APC, IL-4-BV421, IL-10-PE. The dose of antibody was at the recommended dose in the reagent manual. Re-suspend the cells with staining buffer in room temperature for 1.5 hour with shake.\n8) FACS detection. The detection was conducted with BD LSR Fortessa (BD Bioscience, USA). The voltage and compensation may be well adjusted. The result data was analyzed with FlowJo v7.6.3, and the results were shown as positive percentage.\nAntigen specific cellular immunity may play an important role in chronic HBV treatment. […] Peripheral Blood mononuclear cells (PBMC) were isolated and re-stimulated with HBV-specific polypeptide for 10-day enrichment. After the cell was collected and re-stimulated by HBV-specific polypeptide for 8 hours, the levels of cytokines in CD4+ and CD8^+ T lymphocytes were detected by flow cytometry. IL-2, IL-4, IL-10, IL-17a, Foxp3, IFN-γ and TNF-α were analyzed in CD4^+ T cells, whereas IL-2, IL-17a, IFN-γ and TNF-α were analyzed in CD8^+ T lymphocyte."}, "[1]": {"tested_on": "T cell subsets (Th1, Th2, Th17, Treg, Tc1, Tc17)", "experiment": "T-lymphocyte subset proportions and subset ratios during treatment", "assay_type": "in vivo, human", "description": "From the previous results, a T cell responds heterogeneously. In order to intuitively understand the dynamic changes of different T cell subsets, IFN-γ^+ CD4^+ T cells were assigned into the Th1, IL-4^+ CD4^+ T cells as TH2, IL-17a producing CD4^+ T cells as TH17, Foxp3^+CD4^+ T cells Treg, and the CD8^+ T cells secreting different cytokines were classified as TC1 and […] by the same method.\nIn order to further obtain the effect of different therapies on cellular immunity, the TH1/Treg, Th2/Treg, Th17/Treg, and Th1/th2 was analyzed and plotted."}, "CD8+ T cells": {"tested_on": "CD8+ T cells", "experiment": "Clinical cellular immune detection (10-day enrichment), CD8+ T cells re-stimulated with HBV-specific peptides", "assay_type": "in vivo, human", "experimental": "as §1, §2, §3, §4, §5\n6) Intracellular staining. […]\n8) FACS detection. […] The result data was analyzed with FlowJo v7.6.3, and the results were shown as positive percentage.\nAntigen specific cellular immunity may play an important role in chronic HBV treatment. […] After the cell was collected and re-stimulated by HBV-specific polypeptide for 8 hours, the levels of cytokines in CD4+ and CD8^+ T lymphocytes were detected by flow cytometry. IL-2, IL-4, IL-10, IL-17a, Foxp3, IFN-γ and TNF-α were analyzed in CD4^+ T cells, whereas IL-2, IL-17a, IFN-γ and TNF-α were analyzed in CD8^+ T lymphocyte."}, "[2]": {"experiment": "Clinical trial ChiCTR-TRC-13003254: serum ALT kinetics", "assay_type": "in vivo, human", "conditions": "48-week treatment and 72-week follow-up", "experimental": "HBV DNA was not detected or the level decreased at least 2 log 10 IU/mL compared with the basement on weeks 12, 24, 36, 48 and 72; The AST and ALT level on weeks 12, 24, 36, 48 and 72; The histological response, with the inflammation and fibrosis should rate under level 1 of the liver on week 48.\nRoutine biochemistry (liver function, renal function); Blood cell analysis; Serum HBV DNA detection; HBVM detection; All the detection were conducted in the central laboratory of Huashan Hospital."}, "HBsAg": {"tested_on": "HBsAg", "conditions": "after five years of treatment; HBeAg positive CHB patients; cited from earlier work"}, "[3]": {"conditions": "0 to 72 weeks, significant changes at 24th week"}}, "note": "“Also recorded” adds a separate entry of the source.", "data": [{"smiles": "CC(C)(C)C(=O)OCOP(=O)(COCCn1cnc2c(N)ncnc21)OCOC(=O)C(C)(C)C", "note": "[ADV, Adefovir Dipivoxil]", "values": [{"measurement": "Foxp3 expression in CD4+ T cells (Treg), dynamics", "setting": "CD4+ T cells; [3]", "result": "not significantly changed; also recorded: no significant fluctuation; also recorded: did not show significant fluctuation"}, {"measurement": "IL-10 secretion in CD4+ T cells, dynamics", "setting": "CD4+ T cells; [3]", "result": "no significant change"}, {"measurement": "Foxp3 expression in CD4+ T cells (Treg), dynamics", "setting": "CD4+ T cells; 0 to 72 weeks, significant changes at 24th week, listed as Adv", "result": "did not change significantly; also recorded: did not show significant fluctuation"}, {"measurement": "IL-4 in CD4+ T cells, dynamics", "setting": "CD4+ T cells; S-polypeptide pool stimulation", "result": "no difference"}, {"measurement": "IFN-γ expression in CD4+ T cells, dynamics", "setting": "CD4+ T cells; S-polypeptide pool stimulation, 0 to 72 weeks", "result": "no significant difference"}, {"measurement": "IL-2 and TNF-α in CD4+ T cells, dynamics", "setting": "CD4+ T cells; S-polypeptide pool stimulation, course of treatment", "result": "no significant difference"}, {"measurement": "IL-17A in CD4+ T cells, dynamics", "setting": "CD4+ T cells; peptide pool stimulation, course of treatment", "result": "no significant change"}, {"measurement": "change of TH1, TH2, TH17, TC1 and Tc17 cell proportions", "setting": "[1]; 0 weeks to 72 weeks", "result": "no significant changes"}, {"measurement": "proportion of Treg cells in total T cell subsets", "setting": "[1]; 48 weeks", "result": 25.8, "unit": "%"}, {"measurement": "proportion of Treg cells in total T cell subsets", "setting": "[1]; 72 weeks, follow-up endpoint", "result": 37.8, "unit": "%"}, {"measurement": "proportion of Treg cells in total T cell subsets", "setting": "[1]; baseline", "result": 37.7, "unit": "%"}, {"measurement": "IFN-γ secreted by CD8+ T cells, dynamics", "setting": "CD8+ T cells; HLA-A2+ or HLA-A2− S polypeptide re-stimulation, 0 to 72 weeks", "result": "no difference"}, {"measurement": "IL-17A of CD8+ T cells, dynamics", "setting": "CD8+ T cells; S polypeptide pool stimulation", "result": "no significance"}, {"measurement": "IL-2 and TNF-α secreted by CD8+ T cells, dynamics", "setting": "CD8+ T cells; S polypeptide re-stimulation, course of treatment", "result": "No significant difference"}, {"measurement": "ALT level, change", "setting": "[2]", "result": "did not change significantly"}]}, {"smiles": "C[C@H](Cn1cnc2c(N)ncnc21)OCP(=O)(O)O", "note": "[Tenofovir]", "values": [{"measurement": "patients with HBsAg serotype transformed", "setting": "HBsAg", "result": "23 of 266"}]}]}
